Assay results reported in patent US10166279B2, “Vaccine” (Bergen Teknologioverføring AS, priority 2013, dated 2019).
Peptide text beside a SMILES is read from it.

Molecular target: T1, GC-C receptor (Homo sapiens, UniProt P25092)
T1 construct: endogenous in cells; host or cells: T-84 cells
Assay: GC-C receptor T-84 cell assay (toxicity, cGMP levels) of culture filtrates
Type: cell-based
Details: culture filtrate; for Toxicity: relative to native STh, ^2 = no detectable toxicity, set to detection limit 0.0014
Procedure: T-84 cells were seeded and cultured in each well of a 24 well plate. After removing the Dulbecco's modified Eagle's medium (DMEM:F12 (1:1) Lonza Walkersville, Inc.), cells were washed 3 times with 0.5 mL DMEM. Cells were incubated with 0.25 mL DMEM containing 1 mM 3-isobutyl-1-methylxanthine (IBMX) for 10 min at 37° C. 0.1 mL of sample (culture filtrate) was added to each well and incubated for 60 min at 37° C. Following incubation, the reaction medium was aspirated, and the cells were lysed with […] HCl at room temperature for 20 min. The lysates were centrifuged at top speed for 10 min and the cGMP levels were measured in control- and agonist-stimulated cells with a direct cGMP enzyme immunoassay kit (Enzo Life Sciences, Inc.) according to the manufacturer's instructions.
The culture filtrate of each mutant was added to the T-84 cells in duplicate, and a serial dilution of culture filtrates with recombinantly expressed native ST was used to generate a standard curve.
Toxicity measured in culture filtrates is a product of intrinsic toxicity (toxicity per mol) and the concentration of the ST mutant. The same is true for antigenicity. […] Since we have no method for accurately measuring ST (mutant) concentrations in culture filtrates, we are not able to directly measure intrinsic toxicities and antigenicities for the ST mutants.
To circumvent this problem we measure toxicity and antigenicity for the ST mutants relative to native ST. This allows us to describe changes in toxicity and antigenicity in mutant culture filtrates. Next, we divide the change in antigenicity by the change in toxicity for each mutant. If the same culture filtrate has been used to measure toxicity and antigenicity this allows us to eliminate the of the concentration.

T1 sequence (P25092 24-1073): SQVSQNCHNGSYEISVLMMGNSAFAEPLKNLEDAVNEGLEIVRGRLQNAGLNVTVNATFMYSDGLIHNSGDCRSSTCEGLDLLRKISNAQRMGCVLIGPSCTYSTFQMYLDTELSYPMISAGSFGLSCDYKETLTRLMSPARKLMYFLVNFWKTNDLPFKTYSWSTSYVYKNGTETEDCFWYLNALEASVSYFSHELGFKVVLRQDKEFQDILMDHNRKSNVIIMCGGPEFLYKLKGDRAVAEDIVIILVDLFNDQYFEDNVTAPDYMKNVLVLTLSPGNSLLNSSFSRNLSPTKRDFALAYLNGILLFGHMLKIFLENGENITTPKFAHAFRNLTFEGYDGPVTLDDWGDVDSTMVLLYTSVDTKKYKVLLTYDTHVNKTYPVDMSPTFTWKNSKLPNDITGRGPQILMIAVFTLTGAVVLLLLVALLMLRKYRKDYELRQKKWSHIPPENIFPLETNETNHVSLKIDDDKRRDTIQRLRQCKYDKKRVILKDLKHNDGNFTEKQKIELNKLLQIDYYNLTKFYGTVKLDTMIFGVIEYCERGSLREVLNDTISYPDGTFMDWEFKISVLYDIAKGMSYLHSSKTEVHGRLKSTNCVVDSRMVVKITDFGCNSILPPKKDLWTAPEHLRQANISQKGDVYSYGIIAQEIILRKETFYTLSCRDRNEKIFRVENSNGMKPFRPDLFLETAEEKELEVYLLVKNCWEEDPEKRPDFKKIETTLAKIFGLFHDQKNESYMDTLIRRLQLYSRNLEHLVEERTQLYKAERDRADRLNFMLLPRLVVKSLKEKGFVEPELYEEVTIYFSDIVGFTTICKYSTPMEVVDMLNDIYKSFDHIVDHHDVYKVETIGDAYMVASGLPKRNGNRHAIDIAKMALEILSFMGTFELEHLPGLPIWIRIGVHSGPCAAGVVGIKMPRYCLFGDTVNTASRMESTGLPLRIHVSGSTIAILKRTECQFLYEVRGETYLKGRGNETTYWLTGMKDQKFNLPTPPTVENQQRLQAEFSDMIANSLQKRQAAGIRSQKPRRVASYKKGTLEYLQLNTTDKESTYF

CC(C)C[C@@H]1NC(=O)[C@H](CCC(=O)O)NC(=O)[C@@H]2CSSC[C@@H]3NC(=O)[C@H](CCC(N)=O)NC(=O)[C@@H]4CCCN4C(=O)[C@H](CC(N)=O)NC(=O)[C@H](CSSC[C@H](NC(=O)[C@H](Cc4ccc(O)cc4)NC(=O)[C@H](CC(N)=O)NC(=O)[C@H](CO)NC(=O)[C@H](CO)NC(=O)[C@@H](N)CC(N)=O)C(=O)N2)NC(=O)[C@H](CSSC[C@@H](C(=O)N[C@@H](Cc2ccc(O)cc2)C(=O)O)NC(=O)CNC(=O)[C@H]([C@@H](C)O)NC3=O)NC1=O [Mutant A14Q] (HELM PEPTIDE1{N.S.S.N.Y.C.C.E.L.C.C.N.P.Q.C.T.G.C.Y}$PEPTIDE1,PEPTIDE1,6:R3-11:R3|PEPTIDE1,PEPTIDE1,7:R3-15:R3|PEPTIDE1,PEPTIDE1,10:R3-18:R3$$$V2.0)
Toxicity: < 0.0014^2

CC(C)C[C@@H]1NC(=O)[C@H](CCC(=O)O)NC(=O)[C@@H]2CSSC[C@@H]3NC(=O)[C@H](C)NC(=O)[C@@H]4CCCN4C(=O)[C@H]([C@@H](C)O)NC(=O)[C@H](CSSC[C@H](NC(=O)[C@H](Cc4ccc(O)cc4)NC(=O)[C@H](CC(N)=O)NC(=O)[C@H](CO)NC(=O)[C@H](CO)NC(=O)[C@@H](N)CC(N)=O)C(=O)N2)NC(=O)[C@H](CSSC[C@@H](C(=O)N[C@@H](Cc2ccc(O)cc2)C(=O)O)NC(=O)CNC(=O)[C@H]([C@@H](C)O)NC3=O)NC1=O [Mutant N12T] (HELM PEPTIDE1{N.S.S.N.Y.C.C.E.L.C.C.T.P.A.C.T.G.C.Y}$PEPTIDE1,PEPTIDE1,6:R3-11:R3|PEPTIDE1,PEPTIDE1,7:R3-15:R3|PEPTIDE1,PEPTIDE1,10:R3-18:R3$$$V2.0)
toxicity relative to native STh (T84 cell assay): 0.03

CC[C@H](C)[C@@H]1NC(=O)[C@@H]2CCCN2C(=O)[C@H](CC(N)=O)NC(=O)[C@@H]2CSSC[C@H](NC(=O)[C@H](Cc3ccc(O)cc3)NC(=O)[C@H](CC(N)=O)NC(=O)[C@H](CO)NC(=O)[C@H](CO)NC(=O)[C@@H](N)CC(N)=O)C(=O)N[C@H]3CSSC[C@H](NC1=O)C(=O)N[C@@H]([C@@H](C)O)C(=O)NCC(=O)N[C@H](C(=O)N[C@@H](Cc1ccc(O)cc1)C(=O)O)CSSC[C@H](NC(=O)[C@H](CC(C)C)NC(=O)[C@H](CCC(=O)O)NC3=O)C(=O)N2 [Mutant A14I] (HELM PEPTIDE1{N.S.S.N.Y.C.C.E.L.C.C.N.P.I.C.T.G.C.Y}$PEPTIDE1,PEPTIDE1,6:R3-11:R3|PEPTIDE1,PEPTIDE1,7:R3-15:R3|PEPTIDE1,PEPTIDE1,10:R3-18:R3$$$V2.0)
Toxicity: < 0.0014^2

CSCC[C@H](N)C(=O)N[C@@H](CO)C(=O)N[C@@H](CO)C(=O)N[C@@H](CC(N)=O)C(=O)N[C@@H](Cc1ccc(O)cc1)C(=O)N[C@H]1CSSC[C@@H]2NC(=O)[C@@H]3CSSC[C@@H](C(=O)N[C@@H](Cc4ccc(O)cc4)C(=O)O)NC(=O)CNC(=O)[C@H]([C@@H](C)O)NC(=O)[C@H](CSSC[C@H](NC1=O)C(=O)N[C@@H](CCC(=O)O)C(=O)N[C@@H](CC(C)C)C(=O)N3)NC(=O)[C@H](C)NC(=O)[C@@H]1CCCN1C(=O)[C@H](CC(N)=O)NC2=O [Mutant N01M] (HELM PEPTIDE1{M.S.S.N.Y.C.C.E.L.C.C.N.P.A.C.T.G.C.Y}$PEPTIDE1,PEPTIDE1,6:R3-11:R3|PEPTIDE1,PEPTIDE1,7:R3-15:R3|PEPTIDE1,PEPTIDE1,10:R3-18:R3$$$V2.0)
Toxicity: 1.8910

CC(C)C[C@@H]1NC(=O)[C@H](CCC(=O)O)NC(=O)[C@@H]2CSSC[C@@H]3NC(=O)[C@H](C)NC(=O)[C@@H]4CCCN4C(=O)[C@H](CC(N)=O)NC(=O)[C@H](CSSC[C@H](NC(=O)[C@H](Cc4ccc(O)cc4)NC(=O)[C@H](CC(C)C)NC(=O)[C@H](CO)NC(=O)[C@H](CO)NC(=O)[C@@H](N)CC(N)=O)C(=O)N2)NC(=O)[C@H](CSSC[C@@H](C(=O)N[C@@H](Cc2ccc(O)cc2)C(=O)O)NC(=O)CNC(=O)[C@H]([C@@H](C)O)NC3=O)NC1=O [Mutant N04L] (HELM PEPTIDE1{N.S.S.L.Y.C.C.E.L.C.C.N.P.A.C.T.G.C.Y}$PEPTIDE1,PEPTIDE1,6:R3-11:R3|PEPTIDE1,PEPTIDE1,7:R3-15:R3|PEPTIDE1,PEPTIDE1,10:R3-18:R3$$$V2.0)
Toxicity: 0.2934

CC(C)C[C@@H]1NC(=O)[C@H](CCCNC(=N)N)NC(=O)[C@@H]2CSSC[C@@H]3NC(=O)[C@H](C)NC(=O)[C@@H]4CCCN4C(=O)[C@H](CC(N)=O)NC(=O)[C@H](CSSC[C@H](NC(=O)[C@H](Cc4ccc(O)cc4)NC(=O)[C@H](CC(N)=O)NC(=O)[C@H](CO)NC(=O)[C@H](CO)NC(=O)[C@@H](N)CC(N)=O)C(=O)N2)NC(=O)[C@H](CSSC[C@@H](C(=O)N[C@@H](Cc2ccc(O)cc2)C(=O)O)NC(=O)CNC(=O)[C@H]([C@@H](C)O)NC3=O)NC1=O [Mutant E08R] (HELM PEPTIDE1{N.S.S.N.Y.C.C.R.L.C.C.N.P.A.C.T.G.C.Y}$PEPTIDE1,PEPTIDE1,6:R3-11:R3|PEPTIDE1,PEPTIDE1,7:R3-15:R3|PEPTIDE1,PEPTIDE1,10:R3-18:R3$$$V2.0)
Toxicity: 0.0021

CC(C)C[C@@H]1NC(=O)[C@H](CCC(=O)O)NC(=O)[C@@H]2CSSC[C@@H]3NC(=O)[C@H]([C@@H](C)O)NC(=O)[C@@H]4CCCN4C(=O)[C@H](CC(N)=O)NC(=O)[C@H](CSSC[C@H](NC(=O)[C@H](Cc4ccc(O)cc4)NC(=O)[C@H](CC(N)=O)NC(=O)[C@H](CO)NC(=O)[C@H](CO)NC(=O)[C@@H](N)CC(N)=O)C(=O)N2)NC(=O)[C@H](CSSC[C@@H](C(=O)N[C@@H](Cc2ccc(O)cc2)C(=O)O)NC(=O)CNC(=O)[C@H]([C@@H](C)O)NC3=O)NC1=O [Mutant A14T] (HELM PEPTIDE1{N.S.S.N.Y.C.C.E.L.C.C.N.P.T.C.T.G.C.Y}$PEPTIDE1,PEPTIDE1,6:R3-11:R3|PEPTIDE1,PEPTIDE1,7:R3-15:R3|PEPTIDE1,PEPTIDE1,10:R3-18:R3$$$V2.0)
Toxicity: < 0.0014^2

C[C@@H]1NC(=O)[C@@H]2CCCN2C(=O)[C@H](CC(N)=O)NC(=O)[C@@H]2CSSC[C@H](NC(=O)[C@H](Cc3ccc(O)cc3)NC(=O)[C@H](CC(N)=O)NC(=O)[C@H](CO)NC(=O)[C@H](CO)NC(=O)[C@@H](N)CC(N)=O)C(=O)N[C@H]3CSSC[C@H](NC1=O)C(=O)N[C@@H]([C@@H](C)O)C(=O)NCC(=O)N[C@H](C(=O)N[C@@H](Cc1ccc(O)cc1)C(=O)O)CSSC[C@H](NC(=O)CNC(=O)[C@H](CCC(=O)O)NC3=O)C(=O)N2 [Mutant L09G] (HELM PEPTIDE1{N.S.S.N.Y.C.C.E.G.C.C.N.P.A.C.T.G.C.Y}$PEPTIDE1,PEPTIDE1,6:R3-11:R3|PEPTIDE1,PEPTIDE1,7:R3-15:R3|PEPTIDE1,PEPTIDE1,10:R3-18:R3$$$V2.0)
Toxicity: < 0.0014^2

CC(C)C[C@@H]1NC(=O)[C@H](CCC(=O)O)NC(=O)[C@@H]2CSSC[C@@H]3NC(=O)[C@H](C)NC(=O)[C@@H]4CCCN4C(=O)[C@H](CCCCN)NC(=O)[C@H](CSSC[C@H](NC(=O)[C@H](Cc4ccc(O)cc4)NC(=O)[C@H](CC(N)=O)NC(=O)[C@H](CO)NC(=O)[C@H](CO)NC(=O)[C@@H](N)CC(N)=O)C(=O)N2)NC(=O)[C@H](CSSC[C@@H](C(=O)N[C@@H](Cc2ccc(O)cc2)C(=O)O)NC(=O)CNC(=O)[C@H]([C@@H](C)O)NC3=O)NC1=O [Mutant N12K] (HELM PEPTIDE1{N.S.S.N.Y.C.C.E.L.C.C.K.P.A.C.T.G.C.Y}$PEPTIDE1,PEPTIDE1,6:R3-11:R3|PEPTIDE1,PEPTIDE1,7:R3-15:R3|PEPTIDE1,PEPTIDE1,10:R3-18:R3$$$V2.0)
Toxicity: 0.5113

CC(C)C[C@@H]1NC(=O)[C@H](CCC(=O)O)NC(=O)[C@@H]2CSSC[C@@H]3NC(=O)[C@H](CCC(=O)O)NC(=O)[C@@H]4CCCN4C(=O)[C@H](CC(N)=O)NC(=O)[C@H](CSSC[C@H](NC(=O)[C@H](Cc4ccc(O)cc4)NC(=O)[C@H](CC(N)=O)NC(=O)[C@H](CO)NC(=O)[C@H](CO)NC(=O)[C@@H](N)CC(N)=O)C(=O)N2)NC(=O)[C@H](CSSC[C@@H](C(=O)N[C@@H](Cc2ccc(O)cc2)C(=O)O)NC(=O)CNC(=O)[C@H]([C@@H](C)O)NC3=O)NC1=O [Mutant A14E] (HELM PEPTIDE1{N.S.S.N.Y.C.C.E.L.C.C.N.P.E.C.T.G.C.Y}$PEPTIDE1,PEPTIDE1,6:R3-11:R3|PEPTIDE1,PEPTIDE1,7:R3-15:R3|PEPTIDE1,PEPTIDE1,10:R3-18:R3$$$V2.0)
Toxicity: < 0.0014^2

CC(C)C[C@@H]1NC(=O)[C@H](CCC(=O)O)NC(=O)[C@@H]2CSSC[C@@H]3NC(=O)[C@H](CCCNC(=N)N)NC(=O)[C@@H]4CCCN4C(=O)[C@H](CC(N)=O)NC(=O)[C@H](CSSC[C@H](NC(=O)[C@H](Cc4ccc(O)cc4)NC(=O)[C@H](CC(N)=O)NC(=O)[C@H](CO)NC(=O)[C@H](CO)NC(=O)[C@@H](N)CC(N)=O)C(=O)N2)NC(=O)[C@H](CSSC[C@@H](C(=O)N[C@@H](Cc2ccc(O)cc2)C(=O)O)NC(=O)CNC(=O)[C@H]([C@@H](C)O)NC3=O)NC1=O [Mutant A14R] (HELM PEPTIDE1{N.S.S.N.Y.C.C.E.L.C.C.N.P.R.C.T.G.C.Y}$PEPTIDE1,PEPTIDE1,6:R3-11:R3|PEPTIDE1,PEPTIDE1,7:R3-15:R3|PEPTIDE1,PEPTIDE1,10:R3-18:R3$$$V2.0)
Toxicity: < 0.0014^2
